Measurements taken from patent EP3428647A1, “EXPRESSION SIGNATURE FOR GLIOMA DIAGNOSIS AND/OR PROGNOSIS IN A SUBJECT” (Consejo Superior de Investigaciones Científicas (CSIC), priority 2017, dated 2019).
Where two headings read alike, the source gives them in different places.

Tests used:
[1] = tested on: SF268 NAMPT-underexpressing cells; assay: Proliferation assay (growth curve), rescue of NAMPT-underexpressing cells; type: cell-based, human; details: 1 mM NMN; compared to sh
Procedure: A time course curve of parental (empty vector transfected cells) and NAMPT both cDNA and shRNA-expressing cells was generated by seeding […] in 2.2 cm bottom-well diameter dishes in triplicate samples. After 24 hours, medium was changed (day 0) and the indicated culture media added. Every 24 hours, cells were fixed and stained with crystal violet 1% (SIGMA C6158-50G). After extensive washing, crystal violet was solubilized in 20% acetic acid (Sigma) and quantified at 595 nm absorbance as a relative measure of cell number (BIORAD iMarkTM Microplate Reader). Values are expressed as the percentage of cell growth of cells growing in the presence of 10% FBS. Zero percent refers to the number of cells at day 0.
(§1) NAMPT catalyzes the conversion of nicotinamide to nicotinamide mononucleotide (NMN), which is the rate-limiting step in the NAD salvage pathway. If the enzymatic activity of NAMPT is directly responsible for these phenotypes, the phenotype should be recovered by directly adding the product of the enzyme to cells. Therefore, we repeated the previous surrogate experiments and added saturating concentrations of NMN to cells expressing low levels of NAMPT (sh supplemented with NMN, sh+NMN). In these experiments, we rescued the parental phenotypes by supplying the cells with the NAMPT metabolic product NMN (Figure 6A-D left). […]

[2] = tested on: SF268 NAMPT-underexpressing cells; assay: Colony formation (clonogenicity) assay, rescue; type: cell-based, human; details: 1 mM NMN; compared to sh
Procedure: (§2) 10^3 cells were seeded in 10 cm plates, every condition in triplicate. The medium was replaced every 3 days and after 12 days the colonies were fixed and stained with a Crystal violet assay. After extensive-washing, colonies were counted. Values are expressed in number of observed colonies among 10^3 seeded cells. To analyze the clonal heterogeneity, 10^2 random colonies were classified in triplicate depending on its phenotype: Holoclone, Meroclone and Paraclone (Li H. et al 2008.; Garcia-Heredia JM, Lucena-Cacace A, Verdugo-Sivianes EM, Perez M, Carnero A. The cargo protein MAP17 (PDZK1IP1) regulates the cancer stem cell pool activating the Notch pathway by abducting NUMB. Clin Cancer Res. 2017 Feb 2. doi: 10.1158/1078-0432.CCR-16-2358. [
as §1

[3] = tested on: NAMPT- underexpressing cells; assay: Clonal heterogeneity analysis (clone phenotypes), rescue; type: cell-based, human; details: 1 mM NMN; both cell lines
Procedure: as §2, §1

[4] = tested on: SF268 and U251MG NAMPT-underexpressing cells; assay: FACS analysis of CD133 and CD44, rescue; type: cell-based, human; details: 1 mM NMN; both cell lines
Procedure: Single cells were individually seeded through cell sorting (BD FACS Jazz) in 96 well Ultra-low attachment plates containing MammoCultTM Basal medium (Human) (Stem Cell Tech) supplied with hydrocortisone 0.48 mg/mL, Heparin solution 0.2% and 10% MammoCult™ Proliferation Supplement (Human). After 21 days, primary tumorspheres formed were measured both in size and number using inverted microscope (Olympus CKX41). Fluorescence-activated cell sorting (FAC). For FACS staining, live cells were incubated with CD133 (AC133-PE, Miltenyi) and CD44 (PE, Miltenyi) for 30 minutes at dilutions specified in the manufacturer's protocols.
NAMPT catalyzes the conversion of nicotinamide to nicotinamide mononucleotide (NMN), which is the rate-limiting step in the NAD salvage pathway. If the enzymatic activity of NAMPT is directly responsible for these phenotypes, the phenotype should be recovered by directly adding the product of the enzyme to cells. Therefore, we repeated the previous surrogate experiments and added saturating concentrations of NMN to cells expressing low levels of NAMPT (sh supplemented with NMN, sh+NMN). In these experiments, we rescued the parental phenotypes by supplying the cells with the NAMPT metabolic product NMN (Figure 6A-D left). […] Similar results were found using a second shRNA against NAMPT (Figure 4A, B). […]

[5] = tested on: SF268 NAMPT-underexpressing cells; assay: Sphere-forming assay, rescue; type: cell-based, human; details: 1 mM NMN; compared to sh
Procedure: (§3) A total of 5x10^3 cells/mL/well were seeded in Ultra-low Attachment Plates containing MammoCultTM Basal Medium (Human) (Stem Cell Tech) supplied with 0.48 mg/mL hydrocortisone, 0.2% heparin solution and 10% MammoCult™ Proliferation Supplement (Human). After 4 days, primary tumorspheres were measured, both in size and in number, using an inverted microscope (Olympus CKX41).
NAMPT catalyzes the conversion of nicotinamide to nicotinamide mononucleotide (NMN), which is the rate-limiting step in the NAD salvage pathway. If the enzymatic activity of NAMPT is directly responsible for these phenotypes, the phenotype should be recovered by directly adding the product of the enzyme to cells. Therefore, we repeated the previous surrogate experiments and added saturating concentrations of NMN to cells expressing low levels of NAMPT (sh supplemented with NMN, sh+NMN). In these experiments, we rescued the parental phenotypes by supplying the cells with the NAMPT metabolic product NMN (Figure 6A-D left). […] Similar results were found using a second shRNA against NAMPT (Figure 4A, B).
Similar results were found using a second shRNA against NAMPT (Figure 4A, B).

[6] = tested on: SF268; assay: Cytotoxic assay MTT, monolayer culture; type: cell-based, human; details: for IC50: Homo sapiens, monolayer
Procedure: (§4) The human Glioblastoma cell line SF268 and U251MG were cultured in RPMI 1640 medium (SIGMA) supplemented with 10% Fetal Bovine Serum (FBS) at 37°C under 5% CO2 atmosphere. For DNA transfection, SF268 and U251MG were transfected with Mirus TransIT-X2 Dynamic Delivery System (Mirus MIR6000) in exponential phase with 2.5 µg of a small hairping RNA (shRNA) against NAMPT (QIAGEN SureSilencing shRNA insert sequence: 5'-[…]-3' (SEQ ID NO: 17)), 2.5 µg of DNA carrying an hygromycin empty vector (QIAGEN noncoding sequence: 5'-[…]-3' (SEQ ID NO: 18)) and 2.5 µg of DNA of pCMV-hygromycin carrying a cDNA of NAMPT gene (SinoBiological HG10990-M).
5x10^3 SF268 cells were seeded then treated with FK866 24 hours later. After 96 hours, cell viability was measured with MTT.
(§5) For the assay, 5x10^3 cells were seeded and then treated with the different compound at 11 different concentrations at 1/3 dilutions after 24 hours. Then, 96 hours later, cell viability was measured via MTT assay and validated independently by crystal violet staining. IC50 was calculated as the concentration allowing 50% survival compared to day 0 controls. Combination experiments were performed testing 11 different concentrations at 1/3 dilutions of FK866 and maintaining same suboptimal concentration of TMZ (as indicated) in all tested points.

[7] = tested on: U251MG; assay: Cytotoxic assay MTT, monolayer culture; type: cell-based; details: Homo sapiens
Procedure: as §4, §5

[8] = tested on: SF268 tumorspheres; assay: Cytotoxic assay, tumorsphere specific assay; type: cell-based, human; details: for IC50: Homo sapiens
Procedure: as §3, §5

[9] = tested on: U251MG tumorspheres; assay: Cytotoxic assay, tumorsphere specific assay; type: cell-based; details: Homo sapiens
Procedure: as §3, §5

[10] = SF-268, SF268 NAMPT (overexpressing), combined with constant 100 µM TMZ, read-out: IC50 FK866 + 100 µM TMZ (nM ± SD)
[11] = SF-268, SF268 sh (NAMPT shRNA), combined with constant 100 µM TMZ, read-out: IC50 FK866 + 100 µM TMZ (nM ± SD)
[12] = SF-268, SF268 v (vector only), combined with constant 100 µM TMZ, read-out: IC50 FK866 + 100 µM TMZ (nM ± SD)
[13] = U-251, U251MG NAMPT (overexpressing), combined with constant 150 µM TMZ, read-out: IC50 FK866 + 150 µM TMZ (nM ± SD)
[14] = U-251, U251MG sh (NAMPT shRNA), combined with constant 150 µM TMZ, read-out: IC50 FK866 + 150 µM TMZ (nM ± SD)
[15] = U-251, U251MG v (vector only), combined with constant 150 µM TMZ, read-out: IC50 FK866 + 150 µM TMZ (nM ± SD)

SMILES: NC(=O)c1ccc[n+](C2OC(COP(=O)([O-])O)C(O)C2O)c1 (stereo not drawn) [NMN, nicotinamide mononucleotide]
- growth curve, vector-proliferation ratio [1]: can rescue the vector-proliferation ratio
- clonogenicity [2]: can rescue the clonogenetic ability of the vector
- number of holoclones [3]: can rescue the number of holoclones in the vector
- levels of CD44 expression [4]: can rescue the levels of CD44 expression in the vector
- levels of CD133 expression [4]: can rescue and surpass the levels of CD133 expression in the vector
- tumorsphere area / number of tumorspheres [5]: can rescue the number of tumorspheres generated in the vector

SMILES: O=C(/C=C/c1cccnc1)NCCCCC1CCN(C(=O)c2ccccc2)CC1 [FK866]
- IC50 ([6]; SF-268, 96 h, SF268 NAMPT (overexpressing), monotherapy, 96 hours, read-out: IC50 FK866 (nM ± SD)): 2.8 ± 0.3 nM
- IC50 ([6]; SF-268, 96 h, SF268 sh (NAMPT shRNA), monotherapy, 96 hours, read-out: IC50 FK866 (nM ± SD)): 8.3 ± 0.8 nM
- IC50 ([6]; SF-268, 96 h, SF268 v (vector only), monotherapy, 96 hours, read-out: IC50 FK866 (nM ± SD)): 5.2 ± 0.9 nM
- IC50 [6, 10]: 0.2 ± 0.4 nM
- IC50 [6, 11]: 6.1 ± 0.2 nM
- IC50 [6, 12]: 2.4 ± 0.4 nM
- effect of combined treatment with TMZ on the values ([6]; both in mass cultures and tumorspheres): slightly sensitized
- sensitivity of NAMPT-overexpressing cells in mass cultures ([6]; compared with parental cells and NAMPT underexpressing cells): more sensitive
- IC50 ([7]; U-251, 96 h, U251MG NAMPT (overexpressing), monotherapy, 96 hours, read-out: IC50 FK866 (nM ± SD)): 15.3 ± 1.2 nM
- IC50 ([7]; U-251, 96 h, U251MG sh (NAMPT shRNA), monotherapy, 96 hours, read-out: IC50 FK866 (nM ± SD)): 22.3 ± 0.6 nM
- IC50 ([7]; U-251, 96 h, U251MG v (vector only), monotherapy, 96 hours, read-out: IC50 FK866 (nM ± SD)): 20.7 ± 0.7 nM
- IC50 [7, 13]: 5.1 ± 1.4 nM
- IC50 [7, 14]: 19.4 ± 0.7 nM
- IC50 [7, 15]: 14.3 ± 1.3 nM
- induced toxicity in tumorspheres (CIC population) [8]: effective
- IC50 [8, 10]: 0.5 ± 1.1 nM
- IC50 ([8]; SF-268, SF268 NAMPT (overexpressing), monotherapy, read-out: IC50 FK866 (nM ± SD)): 2.5 ± 0.4 nM
- IC50 [8, 11]: 7.3 ± 0.7 nM
- IC50 ([8]; SF-268, SF268 sh (NAMPT shRNA), monotherapy, read-out: IC50 FK866 (nM ± SD)): 9.5 ± 0.9 nM
- IC50 [8, 12]: 4.2 ± 0.3 nM
- IC50 ([8]; SF-268, SF268 v (vector only), monotherapy, read-out: IC50 FK866 (nM ± SD)): 6.1 ± 1.2 nM
- IC50 [9, 13]: 7.2 ± 0.7 nM
- IC50 ([9]; U-251, U251MG NAMPT (overexpressing), monotherapy, read-out: IC50 FK866 (nM ± SD)): 11.3 ± 1.3 nM
- IC50 [9, 14]: 25.4 ± 1.8 nM
- IC50 ([9]; U-251, U251MG sh (NAMPT shRNA), monotherapy, read-out: IC50 FK866 (nM ± SD)): 27.3 ± 1.4 nM
- IC50 [9, 15]: 17.1 ± 0.9 nM
- IC50 ([9]; U-251, U251MG v (vector only), monotherapy, read-out: IC50 FK866 (nM ± SD)): 18.6 ± 1.9 nM

SMILES: Cn1nnc2c(C(N)=O)ncn2c1=O [TMZ, Temozolomide]
- IC50 ([6]; SF-268, 96 h, SF268 NAMPT (overexpressing), monotherapy, 96 hours, read-out: IC50 TMZ (µM ± SD)): 174000 ± 2100 nM
- IC50 ([6]; SF-268, 96 h, SF268 sh (NAMPT shRNA), monotherapy, 96 hours, read-out: IC50 TMZ (µM ± SD)): 163000 ± 2200 nM
- IC50 ([6]; SF-268, 96 h, SF268 v (vector only), monotherapy, 96 hours, read-out: IC50 TMZ (µM ± SD)): 165000 ± 1900 nM
- IC50 ([7]; U-251, 96 h, U251MG NAMPT (overexpressing), monotherapy, 96 hours, read-out: IC50 TMZ (µM ± SD)): 201000 ± 5300 nM
- IC50 ([7]; U-251, 96 h, U251MG sh (NAMPT shRNA), monotherapy, 96 hours, read-out: IC50 TMZ (µM ± SD)): 204000 ± 4800 nM
- IC50 ([7]; U-251, 96 h, U251MG v (vector only), monotherapy, 96 hours, read-out: IC50 TMZ (µM ± SD)): 194000 ± 3400 nM
- IC50 ([8]; SF-268, SF268 NAMPT (overexpressing), monotherapy, read-out: IC50 TMZ (µM ± SD)): 173000 ± 3200 nM
- IC50 ([8]; SF-268, SF268 sh (NAMPT shRNA), monotherapy, read-out: IC50 TMZ (µM ± SD)): 174000 ± 3600 nM
- IC50 ([8]; SF-268, SF268 v (vector only), monotherapy, read-out: IC50 TMZ (µM ± SD)): 170000 ± 2100 nM
- IC50 ([9]; U-251, U251MG NAMPT (overexpressing), monotherapy, read-out: IC50 TMZ (µM ± SD)): 222000 ± 4700 nM
- IC50 ([9]; U-251, U251MG sh (NAMPT shRNA), monotherapy, read-out: IC50 TMZ (µM ± SD)): 221000 ± 3200 nM
- IC50 ([9]; U-251, U251MG v (vector only), monotherapy, read-out: IC50 TMZ (µM ± SD)): 224500 ± 1700 nM
